“And” between values parts separate entries of the source, which are not always exact repeats. Equal values may be shown once.
Key:
BR16 CTC cell line = assay: 17-day treatment, WGBS and i-cisTarget analysis of DMRs that gain methylation; assay type: cell-based, human; conditions: 20 nM
Description: (§1) In order to assess the effect of clustering on DNA methylation patterns and proliferation signature directly BR16 and BRx50 cell lines were cultured for 17 days to ensure that at least 4 divisions would take place. This is to allow proper time for DNA methylation remodeling to take place.
(§2) Under these conditions, for both CTC derived cell lines, a subset of cluster-associated hypomethylated DMRs from patient and xenografts regain ≥20% methylation.
(§3) Proteinase K digestion and bisulfite treatment was performed according to manufacturer's instructions for EZ DNA Methylation Direct Kit (Zymo, Cat #D5020). Bisulfite-treated DNA was eluted using 9 μl of Elution Buffer and used for library generation with TruSeq DNA methylation kit (Illumina, Cat #EGMK91396) according to manufacturer's instructions. For amplification, 18 cycles were performed using Failsafe Enzyme (Illumina, Cat #FSE51100) and indexes were introduced with Index Primers' Kit (Illumina, Cat #EGIDX81312). Library purification was performed using Agencourt AMPure XP beads at a ratio of 1:1 according to manufacturer's instructions. To avoid DNA loss during pipetting steps, Corning DeckWork low binding barrier pipet tips were used (Sigma, Cat #CLS4135-4X960EA). Library concentration was estimated using Qubit DS DNA HS Assay Kit according to manufacturer's instructions (Invitrogen, Cat #Q32854).
(§4) An enrichment score (ES) indicates the over- or underrepresentation of a certain object within a sample of many objects (=enrichment). […] A negative enrichment score indicates the opposite, namely that a feature is less present than to be expected by the values of other features in the sample. […] An enrichment score can be normalized by dividing a specific ES by the mean of the enrichment scores for all objects in the dataset to yield a normalized enrichment score (NES). Normalization of the enrichment score accounts for differences in gene set size and in correlations between gene sets and the expression dataset; therefore, a normalized enrichment scores (NES) can be used to compare analysis results across gene sets. Only TFBS with a NES score […] shown in the analysis.

BRx50 CTC cell line = assay: as above; assay type: cell-based, human; conditions: 20 nM
Description: as §1, §2, §3, §4

BR16 cells = assay: Tail vein injection of in vitro pre-treated BR16 cells, metastasis seeding; assay type: in vivo, NSG mice
Description: To test whether ouabain and digitoxin would also enable CTC clusters disruption in vivo, the inventors took a dual approach. First, the inventors tested whether a 17-day in vitro treatment with ouabain and digitoxin would translate into a reduced ability of the treated cells to efficiently seed metastasis in untreated mice (FIG. 7A). To this end, upon treatment, BR16 cells stably expressing GFP-luciferase were injected into the tail vein of NSG mice and noninvasively monitored through luminescence imaging for their ability to seed and propagate metastatic lesions.
For tail vein experiments, NOD SCID Gamma (NSG) mice (Jackson Labs) were injected with 1×10^6 BR16-mCherry cells resuspended in 100 μl D-PBS and monitored with IVIS Lumina II (Perkin Elmer). For CTC xenograft mouse model isolation, 1×10^6 LM2-GFP, 1×10^6 BRx50-GFP or 1×10^6 BR16-GFP cells were resuspended in 100 μl of 50% Cultrex PathClear Reduced Growth Factor Basement Membrane Extract (R&D Biosystems, Cat #3533-010-02) in D-PBS and injected orthotopically in NSG mice. Blood draw was performed 4-5 weeks after tumor onset for LM2 cells, 5-6 months after tumor onset for BR16 and 6-7 months after tumor onset for BRx50 cells.

LM2 xenografts = assay: LM2 xenograft, spontaneous CTC clusters and metastasis; assay type: in vivo, NSG mice; conditions: LM2 tumors; ouabain treatment

C[C@@H]1O[C@@H](O[C@H]2C[C@@H](O)[C@]3(CO)[C@H]4[C@H](O)C[C@]5(C)[C@@H](C6=CC(=O)OC6)CC[C@]5(O)[C@@H]4CC[C@]3(O)C2)[C@H](O)[C@H](O)[C@H]1O [ouabain, Ouabain]
NES score of TFBS BDP1 in DMRs with ≥20% gain in methylation (BR16 CTC cell line; 17-day treatment): 5.64
NES score of TFBS CEBPD in DMRs with ≥20% gain in methylation (BR16 CTC cell line; 17-day treatment): 4.05
NES score of TFBS FOS in DMRs with ≥20% gain in methylation (BR16 CTC cell line; 17-day treatment): 7.29 and 6.04
NES score of TFBS FOXG1/O1 in DMRs with ≥20% gain in methylation (BR16 CTC cell line; 17-day treatment): 3.74 and 3.39
NES score of TFBS HMBOX1 in DMRs with ≥20% gain in methylation (BR16 CTC cell line; 17-day treatment): 3.89
NES score of TFBS HSF1 in DMRs with ≥20% gain in methylation (BR16 CTC cell line; 17-day treatment): 3.71
NES score of TFBS IRF4 in DMRs with ≥20% gain in methylation (BR16 CTC cell line; 17-day treatment): 3.244
NES score of TFBS IRX3 in DMRs with ≥20% gain in methylation (BR16 CTC cell line; 17-day treatment): 3.63
NES score of TFBS IRX6 in DMRs with ≥20% gain in methylation (BR16 CTC cell line; 17-day treatment): 3.63
NES score of TFBS KDM5D in DMRs with ≥20% gain in methylation (BR16 CTC cell line; 17-day treatment): 3.11
NES score of TFBS MEIS1 in DMRs with ≥20% gain in methylation (BR16 CTC cell line; 17-day treatment): 3
NES score of TFBS NANOG in DMRs with ≥20% gain in methylation (BR16 CTC cell line; 17-day treatment): 3.349 and 3.28
NES score of TFBS OCT4 in DMRs with ≥20% gain in methylation (BR16 CTC cell line; 17-day treatment): 3.2 and 3.13 and 3.204
NES score of TFBS SIX4/5 in DMRs with ≥20% gain in methylation (BR16 CTC cell line; 17-day treatment): 6.27 and 6.16
NES score of TFBS SOX2 in DMRs with ≥20% gain in methylation (BR16 CTC cell line; 17-day treatment): 4.82 and 4.51 and 4.24 and 3.28
NES score of TFBS SOX18 in DMRs with ≥20% gain in methylation (BR16 CTC cell line; 17-day treatment): 3.2
NES score of TFBS SRY in DMRs with ≥20% gain in methylation (BR16 CTC cell line; 17-day treatment): 6.46 and 6.36
NES score of TFBS TPPP in DMRs with ≥20% gain in methylation (BR16 CTC cell line; 17-day treatment): 3.1
NES score of TFBS YAP5 in DMRs with ≥20% gain in methylation (BR16 CTC cell line; 17-day treatment): 3.55 and 3.08
NES score of TFBS YY2 in DMRs with ≥20% gain in methylation (BR16 CTC cell line; 17-day treatment): 6.5,
NES score of TFBS ZNF274 in DMRs with ≥20% gain in methylation (BR16 CTC cell line; 17-day treatment): 4.59 and 3.01
NES score of TFBS ZNF594 in DMRs with ≥20% gain in methylation (BR16 CTC cell line; 17-day treatment): 4.84
number of DMRs with ≥20% gain in methylation (BR16 CTC cell line; 17-day treatment): n = (108)
gain of methylation in DMRs containing binding sites for stemness-related TFs (BR16 CTC cell line; 17 days): simultaneously affecting the binding sites of OCT4, SOX2 and NANOG
NES score of TFBS BCL11A in DMRs with ≥20% gain in methylation (BRx50 CTC cell line): 3.8 and 3.69
NES score of TFBS FOS in DMRs with ≥20% gain in methylation (BRx50 CTC cell line): 3.91
NES score of TFBS FOXG1/O1 in DMRs with ≥20% gain in methylation (BRx50 CTC cell line): 3.53 and 3.25 and 3.1
NES score of TFBS HMBOX1 in DMRs with ≥20% gain in methylation (BRx50 CTC cell line): 3.35 and 3.30 and 3.22
NES score of TFBS IRX6 in DMRs with ≥20% gain in methylation (BRx50 CTC cell line): 3.8
NES score of TFBS MEIS1 in DMRs with ≥20% gain in methylation (BRx50 CTC cell line): 4.09
NES score of TFBS NANOG in DMRs with ≥20% gain in methylation (BRx50 CTC cell line): 3.61
NES score of TFBS OCT4 in DMRs with ≥20% gain in methylation (BRx50 CTC cell line): 3.42
NES score of TFBS RORA in DMRs with ≥20% gain in methylation (BRx50 CTC cell line): 4.02 and 3.75
NES score of TFBS SIX4/5 in DMRs with ≥20% gain in methylation (BRx50 CTC cell line): 3.87 and 3.65
NES score of TFBS SOX18 in DMRs with ≥20% gain in methylation (BRx50 CTC cell line): 3.11
NES score of TFBS YY2 in DMRs with ≥20% gain in methylation (BRx50 CTC cell line): 3.56
NES score of TFBS ZNF493 in DMRs with ≥20% gain in methylation (BRx50 CTC cell line): 3.12
number of DMRs with ≥20% gain in methylation (BRx50 CTC cell line): (n = 121)
expression of cleaved caspase 3 compared to control cells (BR16 cells; cancer cells in lungs, pre-treated cells, day 1): significant increase
ability of BR16 cells to lodge in the lung tissue immediately after injection (bioluminescence flux) (BR16 cells; cells pre-treated 17 days in vitro, 20 nM, tail vein, day 0): did not affect
ability to survive during the first day upon arrival (bioluminescence flux) (BR16 cells; cells pre-treated 17 days in vitro, 20 nM, tail vein, day 1): reduced ability to survive
metastatic outgrowth (BR16 cells; pre-treated cells, no further treatment in vivo, 72 days upon injection): delayed metastatic outgrowth
CTC clusters (proportion) (LM2 xenografts): decrease in CTC clusters
metastatic burden compared to control (LM2 xenografts): reduced metastatic burden
overall CTC numbers (LM2 xenografts): without any change
primary tumor size (LM2 xenografts): without any change
proportion of single CTCs (LM2 xenografts): increase in the proportion of single CTCs

— patent US20220062317A1, “NA+/K+ ATPASE INHIBITORS FOR USE IN THE PREVENTION OR TREATMENT OF METASTASIS” (UNIVERSITÄT BASEL, priority 2018, published 2022)
